Assay results published in patent US20200375999A1, “PHARMACEUTICAL COMBINATIONS OF EGFR INHIBITORS AND METHODS OF USE THEREOF” (DANA-FARBER CANCER INSTITUTE, INC., priority 2018, published 2020).
Like-named read-outs stand apart in the source and are kept apart here.

Assays:
[1] = molecular target: T1, EGFR T790M/L858R Ba/F3 cell line (Homo sapiens, UniProt P00533, T790M/L858R, cells depend on it); assay: Ba/F3 cell proliferation (MTS assay), EGFR T790M/L858R; format: cell-based, murine; details: for Activity (% cetuximab); inhibition of proliferation: compound at 1 μM in the presence of 1 μg/mL cetuximab; for Activity (% cetuximab); inhibition of proliferation / Activity (% DMSO control); inhibition of proliferation: EGFR T790M/L858R Ba/F3; for Activity (% DMSO control); inhibition of proliferation: compound at 1 μM
T1 construct: "The constructs were shuttled into the retroviral vector JP1540 using the BD Creator™ System (BD Biosciences)
T1 sequence (P00533 whole entry T790M/L858R): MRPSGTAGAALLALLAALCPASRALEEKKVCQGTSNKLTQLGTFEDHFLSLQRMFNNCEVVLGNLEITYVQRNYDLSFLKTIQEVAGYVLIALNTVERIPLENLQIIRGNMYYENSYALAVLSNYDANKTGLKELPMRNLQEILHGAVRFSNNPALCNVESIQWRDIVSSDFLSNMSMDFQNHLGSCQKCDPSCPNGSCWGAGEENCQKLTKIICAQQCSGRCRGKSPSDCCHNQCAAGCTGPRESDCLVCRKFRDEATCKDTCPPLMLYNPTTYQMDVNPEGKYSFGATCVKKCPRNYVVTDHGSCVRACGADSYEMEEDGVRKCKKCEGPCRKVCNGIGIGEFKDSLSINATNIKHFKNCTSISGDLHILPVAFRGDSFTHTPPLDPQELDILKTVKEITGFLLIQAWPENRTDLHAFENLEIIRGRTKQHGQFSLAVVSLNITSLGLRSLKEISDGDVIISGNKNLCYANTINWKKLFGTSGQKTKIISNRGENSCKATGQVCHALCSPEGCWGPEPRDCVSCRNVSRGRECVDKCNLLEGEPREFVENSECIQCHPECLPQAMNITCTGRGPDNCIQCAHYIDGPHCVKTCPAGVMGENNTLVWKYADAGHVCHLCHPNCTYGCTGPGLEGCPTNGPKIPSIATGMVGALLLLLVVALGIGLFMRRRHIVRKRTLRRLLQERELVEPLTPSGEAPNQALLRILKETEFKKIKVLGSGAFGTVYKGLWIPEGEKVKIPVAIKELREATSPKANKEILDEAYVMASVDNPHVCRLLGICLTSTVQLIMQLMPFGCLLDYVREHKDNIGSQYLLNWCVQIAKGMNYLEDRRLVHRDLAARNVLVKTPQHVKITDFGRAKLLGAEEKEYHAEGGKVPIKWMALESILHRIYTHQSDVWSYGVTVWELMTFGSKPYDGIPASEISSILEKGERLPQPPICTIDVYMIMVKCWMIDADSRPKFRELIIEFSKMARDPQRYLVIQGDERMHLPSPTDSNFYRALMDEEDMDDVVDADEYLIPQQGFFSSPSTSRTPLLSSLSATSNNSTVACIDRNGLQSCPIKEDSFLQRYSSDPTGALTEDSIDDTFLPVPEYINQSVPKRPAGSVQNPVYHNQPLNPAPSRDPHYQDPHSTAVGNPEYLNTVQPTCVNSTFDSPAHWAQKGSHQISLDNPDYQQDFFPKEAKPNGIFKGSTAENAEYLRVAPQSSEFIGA
Experimental: All cell lines were maintained in RPM 1640 (Cellgro; Mediatech Inc., Herndon, Calif.) supplemented with 10% FBS 100 units/mL penicillin, 100 units/mL streptomycin, and 2 mM glutamine. […] The EGFR 1941R mutation was introduced via site directed mutagenesis using the Quick Change Site-Directed Mutagenesis kit (Stratagene: La Jolla, Calif.) according to the manufacturer's instructions. All constructs were confirmed by DNA sequencing. The constructs were shuttled into the retroviral vector JP1540 using the BD Creator™ System (BD Biosciences). Ba/F3 cells were infected with retrovirus and according to standard protocols, as described previously (Zhou 2009). Stable clones were obtained by selection in puromycin (2 μg/ml).
Growth and inhibition of growth was assessed by MTS assay and was performed according to previously established methods (Zhou 2009). The MTS assay is a colorimetric method for determining the number of viable cells that is based on the bioreduction of MTS by cells to a formazan product that is soluble in cell culture medium and can be detected spectrophotometrically. […] All experimental points were set up in six wells and all experiments were repeated at least three times. […] The curves were fitted using anon-linear regression model with a sigmoidal dose response.

[2] = tested on: EGFR L858R/T790M/C797S Ba/F3 cell line; assay: Ba/F3 cell proliferation (MTS assay), EGFR L858R/T790M/C797S; format: cell-based, murine; details: for Activity (% cetuximab); inhibition of proliferation: compound at 1 μM in the presence of 1 μg/mL cetuximab, EGFR L858R/T790M/C797S; for Activity (% DMSO control); inhibition of proliferation: compound at 1 μM, EGFR L858R/T790M/C797S Ba/F3
Experimental: The EGFR mutant L858R, Del E746_A750, L858R/T790M, DelE746_A750/T790M, L858R/T790M/C797S and Del/T790M/C797S Ba/F3 cells were previously described (Zhou et al., Nature 462, (2009), 1070-1074). All cell lines were maintained in RPM 1640 (Cellgro; Mediatech Inc., Herndon, Calif.) supplemented with 10% FBS 100 units/mL penicillin, 100 units/mL streptomycin, and 2 mM glutamine. L858R cells were maintained in ACL-4 media (Invitrogen, Carlsbad, Calif.) supplemented with 5% FBS, 100 units/mL penicillin, 100 units/mL streptomycin, and 2 mM glutamine. The EGFR 1941R mutation was introduced via site directed mutagenesis using the Quick Change Site-Directed Mutagenesis kit (Stratagene: La Jolla, Calif.) according to the manufacturer's instructions. All constructs were confirmed by DNA sequencing. The constructs were shuttled into the retroviral vector JP1540 using the BD Creator™ System (BD Biosciences). Ba/F3 cells were infected with retrovirus and according to standard protocols, as described previously (Zhou 2009). Stable clones were obtained by selection in puromycin (2 μg/ml).
Growth and inhibition of growth was assessed by MTS assay and was performed according to previously established methods (Zhou 2009). The MTS assay is a colorimetric method for determining the number of viable cells that is based on the bioreduction of MTS by cells to a formazan product that is soluble in cell culture medium and can be detected spectrophotometrically. Ba/F3 cells of different EGFR genotypes were exposed to treatment and the number of cells used per experiment determined empirically and has been previously established (Zhou 2009). All experimental points were set up in six wells and all experiments were repeated at least three times. […] The curves were fitted using anon-linear regression model with a sigmoidal dose response.

[3] = molecular target: T2, recombinant EGFR T790M/L858R kinase (Homo sapiens, UniProt P00533, L858R/T790M); assay: HTRF-based EGFR biochemical assay
T2 construct: Constructs spanning residues 696-1022 of the human EGFR; GST (cleaved yes); made in house; host or cells: Sf9 insect cells
T2 sequence (P00533 696-1022 T790M/L858R): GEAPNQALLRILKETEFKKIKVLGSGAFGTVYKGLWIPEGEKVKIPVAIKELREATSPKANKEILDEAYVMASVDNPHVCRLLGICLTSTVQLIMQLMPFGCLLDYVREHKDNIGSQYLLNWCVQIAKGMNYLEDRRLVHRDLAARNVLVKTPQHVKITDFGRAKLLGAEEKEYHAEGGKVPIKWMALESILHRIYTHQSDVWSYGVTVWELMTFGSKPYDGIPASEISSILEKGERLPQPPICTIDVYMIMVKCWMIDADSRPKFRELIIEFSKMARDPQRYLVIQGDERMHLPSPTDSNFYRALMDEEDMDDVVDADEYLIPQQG
Experimental: EGFR kinase proteins were purified by glutathione-affinity chromatography followed by size-exclusion chromatography after cleavage with TEV or thrombin to remove the GST fusion partner following established procedures. (Yun 2008; Yun 2007).
EGFR biochemical assays were carried out using a homogeneous time-resolved fluorescence (HTRF) assay as described previously. The reaction mixtures contained 1 μM biotin-Lck-peptide substrate, wild type or mutant EGFR enzyme in reaction buffer (50 mM HEPES pH 7.1, 10 mM MgCl2, 0.01% BSA. 1 mM TCEP and 0.1 mM Na3VO4) at a final volume of 10 μL. […] All reactions were carried out at room temperature in white ProxiPlate™ 384-well Plus plates (PerkinElmer) and were quenched with 5 μL of 0.2 M EDTA at 60 min. Five μL per well of the detection reagent containing 2.5 ng PT66K (Cis-bio) and 0.05 μg SAXL (Prozyme) were added, and the plates were then incubated at room temperature for 1 hour and read with an EnVision plate reader.

[4] = absence of cetuximab, read-out: Ba/F3 cellular activity (EC50) T790M/L858R
[5] = read-out: Ba/F3 cellular activity (EC50) T790M/L858R + Cetuximab (1 μg/mL), presence of 1 μg/mL cetuximab

SMILES | EC50 [1, 4] | Activity (% cetuximab); inhibition of proliferation [1] | Activity (% DMSO control); inhibition of proliferation [1] | EC50 [1, 5] | IC50 [3] | Activity (% cetuximab); inhibition of proliferation [2] | Activity (% DMSO control); inhibition of proliferation [2]
O=C1c2cc(-c3ccc(N4CCNCC4)cc3)ccc2Nc2ccc(F)cc2N1Cc1ccccc1 [Compound I-1] | ≥ 750 nM | B (25 ≤ B < 50) | D (75 ≤ D) | 500 to 750 nM |  | B (25 ≤ B < 50) | D (75 ≤ D)
O=C1c2cc(-c3ccc4[nH]ccc4c3)ccc2Nc2ccc(F)cc2N1Cc1ccccc1 [Compound I-2] | ≥ 750 nM | B (25 ≤ B < 50) | D (75 ≤ D) | < 250 nM | < 250 nM | A (0 ≤ A < 25) | D (75 ≤ D)
CN1CCC(n2cc(-c3ccc4c(c3)C(=O)N(Cc3ccccc3)c3cc(F)ccc3N4)cn2)CC1 [Compound I-3] | ≥ 750 nM | B (25 ≤ B < 50) | D (75 ≤ D) | < 250 nM | < 250 nM | C (50 ≤ C < 75) | D (75 ≤ D)
O=C1c2cc(-c3ccc(-c4cn[nH]c4)cc3)ccc2Nc2ccc(F)cc2N1Cc1ccccc1 [Compound I-4] | ≥ 750 nM | A (0 ≤ A < 25) | D (75 ≤ D) | 250 to 500 nM | < 250 nM | A (0 ≤ A < 25) | D (75 ≤ D)
O=C1c2cc(-c3ccc(N4CCNCC4)cc3)ccc2Nc2ccc(F)cc2N1c1ccccc1 [Compound I-5] | ≥ 750 nM | D (75 ≤ D) | D (75 ≤ D) | ≥ 750 nM | ≥ 750 nM | D (75 ≤ D) | D (75 ≤ D)
O=C1c2cc(-c3ccc(N4CCNCC4)cc3)ccc2Nc2ccc(F)cc2N1Cc1cccnc1 [Compound I-6] | ≥ 750 nM | D (75 ≤ D) | D (75 ≤ D) | ≥ 750 nM | ≥ 750 nM | D (75 ≤ D) | D (75 ≤ D)
O=C1c2cc(-c3ccc(N4CCNCC4)cc3)ccc2Nc2ccc(F)cc2N1Cc1nccs1 [Compound I-7] | ≥ 750 nM | C (50 ≤ C < 75) | D (75 ≤ D) | ≥ 750 nM | < 250 nM | D (75 ≤ D) | D (75 ≤ D)
O=C1c2cc(-c3ccc4[nH]ccc4c3)ccc2Nc2ccc(F)cc2N1c1ccccc1 [Compound I-8] | ≥ 750 nM | D (75 ≤ D) | D (75 ≤ D) | ≥ 750 nM | ≥ 750 nM | D (75 ≤ D) | D (75 ≤ D)
O=C1c2cc(-c3ccc4[nH]ccc4c3)ccc2Nc2ccc(F)cc2N1Cc1cccnc1 [Compound I-9] | ≥ 750 nM | D (75 ≤ D) | D (75 ≤ D) | ≥ 750 nM | ≥ 750 nM | D (75 ≤ D) | D (75 ≤ D)
O=C1c2cc(-c3ccc4[nH]ccc4c3)ccc2Nc2ccc(F)cc2N1Cc1nccs1 [Compound I-10] | ≥ 750 nM | D (75 ≤ D) | D (75 ≤ D) | ≥ 750 nM | ≥ 750 nM | C (50 ≤ C < 75) | D (75 ≤ D)
O=C1c2cc(-c3ccc(N4CCNCC4)cc3)ccc2Nc2ncc(F)cc2N1Cc1ccccc1 [Compound I-12] | ≥ 750 nM |  |  | ≥ 750 nM | ≥ 750 nM |  | 
O=C1c2cc(-c3ccc(N4CCNCC4)cc3)ccc2Nc2ccncc2N1Cc1ccccc1 [Compound I-13] | ≥ 750 nM |  |  | ≥ 750 nM | ≥ 750 nM |  | 

Continued, in another order:

EC50 [1, 4] | Activity (% cetuximab); inhibition of proliferation [1] | Activity (% DMSO control); inhibition of proliferation [1] | EC50 [1, 5] | IC50 [3] | SMILES | Activity (% cetuximab); inhibition of proliferation [2] | Activity (% DMSO control); inhibition of proliferation [2]
≥ 750 nM |  |  | ≥ 750 nM | ≥ 750 nM | Nc1ccc2c(c1)N(Cc1ccccc1)C(=O)c1cc(-c3ccc4[nH]ccc4c3)ccc1N2 [Compound I-14] |  | 
≥ 750 nM |  |  | ≥ 750 nM | ≥ 750 nM | CC(=O)Nc1ccc2c(c1)N(Cc1ccccc1)C(=O)c1cc(-c3ccc4[nH]ccc4c3)ccc1N2 [Compound I-15] |  | 
250 to 500 nM |  |  | 250 to 500 nM | ≥ 750 nM | CCC(=O)Nc1ccc2c(c1)N(Cc1ccccc1)C(=O)c1cc(-c3ccc4[nH]ccc4c3)ccc1N2 [Compound I-16] |  | 
 |  |  |  | < 250 nM | CN1CCC(c2ccc(-c3ccc4c(c3)C(=O)N(Cc3ccccc3)c3cc(F)ccc3N4)cc2)CC1 [Compound I-17] |  | 
≥ 750 nM |  |  | < 250 nM | < 250 nM | O=C1c2cc(-c3ccc(N4CCNCC4)cc3)ccc2Nc2ccc(F)cc2N1Cc1cccc2cc[nH]c12 [Compound I-18] |  | 
≥ 750 nM |  |  | ≥ 750 nM | ≥ 750 nM | O=C1c2cc(-c3ccc(N4CCNCC4)cc3)ccc2Nc2ccc(F)cc2N1Cc1ccc2cc[nH]c2c1 [Compound I-19] |  | 
≥ 750 nM |  |  | 250 to 500 nM | < 250 nM | CN1CCN(c2ccc(Oc3ccc4c(c3)C(=O)N(Cc3ccccc3)c3cc(F)ccc3N4)cc2)CC1 [Compound I-20, 10-benzyl-8-fluoro-2-(4-(4-methylpiperazin-1-yl)phenoxy)-5,10-dihydro-11H-dibenzo[b,e][1,4]diazepin-11-one] |  | 
 |  |  |  | < 250 nM | CN1CCC(n2cc(-c3ccc4c(c3)C(=O)N(Cc3cccc(F)c3)c3cc(F)ccc3N4)cn2)CC1 [Compound I-22] |  | 
≥ 750 nM |  |  | ≥ 750 nM | < 250 nM | CN1CCC(n2cc(-c3ccc4c(c3)C(=O)N(Cc3cccc(Cl)c3)c3cc(F)ccc3N4)cn2)CC1 [Compound I-23] |  | 
≥ 750 nM |  |  | ≥ 750 nM | < 250 nM | CN1CCC(n2cc(-c3ccc4c(c3)C(=O)N(Cc3cc(F)cc(F)c3)c3cc(F)ccc3N4)cn2)CC1 [Compound I-24] |  | 
≥ 750 nM |  |  | ≥ 750 nM | < 250 nM | CN1CCC(n2cc(-c3ccc4c(c3)C(=O)N(Cc3cccc5cc[nH]c35)c3cc(F)ccc3N4)cn2)CC1 [Compound I-25] |  | 
≥ 750 nM |  |  | 250 to 500 nM | < 250 nM | O=C1c2cc(Br)ccc2Nc2ccc(F)cc2N1Cc1ccccc1 [I-a] |  | 
